# Earlier results in patent publication US20100267661A1, “BETA GLUCANS AND METHODS OF USE THEREOF” (ImmuDyne, Inc., priority 2009, published 2010).
# Details: rats
substance,measurement,value
"(1,3)-β-D-glucan [particulate yeast (1,3)-β-D-glucan]",Adverse or toxic effects,no adverse or toxic effects
